Reference: article PMC8491401, “Phytochemical analysis, antioxidant and in vitro β-galactosidase inhibition activities of Juniperus phoenicea and Calicotome villosa methanolic extracts” (BMC Chemistry, 2021)
Read-outs that look alike come from different tables or passages of the source.

Columns and labels:
[1] = target: T1, β-Galactosidase from Aspergillus oryzae (Aspergillus oryzae, UniProt Q2UCU3); experiment: ONPG hydrolysis, absorbance at […] nm; type: biochemical
T1 construct: gene lacA; commercial enzyme from Sigma-Aldrich, secreted fungal enzyme; construct details not given
T1 sequence (Q2UCU3 19-1005): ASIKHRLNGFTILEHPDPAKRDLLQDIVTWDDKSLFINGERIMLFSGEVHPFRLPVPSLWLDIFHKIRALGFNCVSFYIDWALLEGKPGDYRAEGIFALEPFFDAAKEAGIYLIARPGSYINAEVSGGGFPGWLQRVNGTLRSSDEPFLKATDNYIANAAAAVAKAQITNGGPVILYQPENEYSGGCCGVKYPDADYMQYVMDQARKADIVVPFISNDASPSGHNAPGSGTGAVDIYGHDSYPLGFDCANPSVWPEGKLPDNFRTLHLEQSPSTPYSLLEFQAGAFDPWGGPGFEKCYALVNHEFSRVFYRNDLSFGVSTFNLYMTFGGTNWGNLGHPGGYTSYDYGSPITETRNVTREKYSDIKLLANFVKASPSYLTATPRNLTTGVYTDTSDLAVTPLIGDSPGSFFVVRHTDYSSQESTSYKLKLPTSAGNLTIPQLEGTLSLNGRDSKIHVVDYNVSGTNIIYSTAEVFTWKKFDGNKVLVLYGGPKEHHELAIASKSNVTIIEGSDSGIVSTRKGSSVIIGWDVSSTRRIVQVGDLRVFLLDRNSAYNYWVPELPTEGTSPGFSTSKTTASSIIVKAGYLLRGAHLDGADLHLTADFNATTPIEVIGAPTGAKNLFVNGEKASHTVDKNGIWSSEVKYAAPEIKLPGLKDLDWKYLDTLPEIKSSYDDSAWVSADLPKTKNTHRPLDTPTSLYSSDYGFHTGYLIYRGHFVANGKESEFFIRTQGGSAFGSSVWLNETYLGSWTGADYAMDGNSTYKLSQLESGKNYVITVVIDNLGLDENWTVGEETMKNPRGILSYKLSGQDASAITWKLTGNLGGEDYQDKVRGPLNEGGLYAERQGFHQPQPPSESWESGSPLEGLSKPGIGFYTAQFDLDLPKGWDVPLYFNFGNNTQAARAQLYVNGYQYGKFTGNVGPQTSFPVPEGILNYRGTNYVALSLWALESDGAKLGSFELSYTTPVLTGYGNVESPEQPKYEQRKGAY

[2] = target: T1, β-Galactosidase from Aspergillus oryzae; experiment: Lineweaver-Burk, ONPG hydrolysis; type: biochemical; details: pH 4.5, 30 °C, mixed, read-out: Ki (mg/ml) (converted)
Description: Lineweaver-Burk, ONPG hydrolysis on β-Galactosidase from Aspergillus oryzae

[3] = substrate: O=[N+]([O-])c1ccccc1O[C@@H]1O[C@H](CO)[C@H](O)[C@H](O)[C@H]1O; experiment: Lineweaver-Burk, ONPG hydrolysis; type: biochemical, Aspergillus oryzae; details: pH 4.5, 30 °C, no inhibitor
Description: Lineweaver-Burk, ONPG hydrolysis on β-Galactosidase from Aspergillus oryzae | Km and Vmax were obtained by a typical double reciprocal Lineweaver Burk plot

For `C[C@@H]1O[C@@H](OC[C@H]2O[C@@H](Oc3c(-c4ccc(O)c(O)c4)oc4cc(O)cc(O)c4c3=O)[C@H](O)[C@@H](O)[C@@H]2O)[C@H](O)[C@H](O)[C@H]1O` [Rutin], which IC50 [1] is on record?
Its IC50 is 0.123 mM.

How did the IC50 ([1]; ONPG 20 µmol in 4 ml, 0.1 M citrate-phosphate pH 4.5, 30 °C, mixed) turn out when `OC[C@H]1OC(O)[C@H](O)[C@@H](O)[C@H]1O` (stereo partly shown) [Galactose] was run?
The IC50 was 3.33 mM.

And the Ki [2]?
Its Ki is 10.4 mM.

B1: β-Galactosidase from Aspergillus oryzae (Aspergillus oryzae RIB40) (protein)
chain: ASIKHRLNGFTILEHPDPAKRDLLQDIVTWDDKSLFINGERIMLFSGEVHPFRLPVPSLWLDIFHKIRALGFNCVSFYIDWALLEGKPGDYRAEGIFALEPFFDAAKEAGIYLIARPGSYINAEVSGGGFPGWLQRVNGTLRSSDEPFLKATDNYIANAAAAVAKAQITNGGPVILYQPENEYSGGCCGVKYPDADYMQYVMDQARKADIVVPFISNDASPSGHNAPGSGTGAVDIYGHDSYPLGFDCANPSVWPEGKLPDNFRTLHLEQSPSTPYSLLEFQAGAFDPWGGPGFEKCYALVNHEFSRVFYRNDLSFGVSTFNLYMTFGGTNWGNLGHPGGYTSYDYGSPITETRNVTREKYSDIKLLANFVKASPSYLTATPRNLTTGVYTDTSDLAVTPLIGDSPGSFFVVRHTDYSSQESTSYKLKLPTSAGNLTIPQLEGTLSLNGRDSKIHVVDYNVSGTNIIYSTAEVFTWKKFDGNKVLVLYGGPKEHHELAIASKSNVTIIEGSDSGIVSTRKGSSVIIGWDVSSTRRIVQVGDLRVFLLDRNSAYNYWVPELPTEGTSPGFSTSKTTASSIIVKAGYLLRGAHLDGADLHLTADFNATTPIEVIGAPTGAKNLFVNGEKASHTVDKNGIWSSEVKYAAPEIKLPGLKDLDWKYLDTLPEIKSSYDDSAWVSADLPKTKNTHRPLDTPTSLYSSDYGFHTGYLIYRGHFVANGKESEFFIRTQGGSAFGSSVWLNETYLGSWTGADYAMDGNSTYKLSQLESGKNYVITVVIDNLGLDENWTVGEETMKNPRGILSYKLSGQDASAITWKLTGNLGGEDYQDKVRGPLNEGGLYAERQGFHQPQPPSESWESGSPLEGLSKPGIGFYTAQFDLDLPKGWDVPLYFNFGNNTQAARAQLYVNGYQYGKFTGNVGPQTSFPVPEGILNYRGTNYVALSLWALESDGAKLGSFELSYTTPVLTGYGNVESPEQPKYEQRKGAY
notes: commercial enzyme from Sigma-Aldrich, secreted fungal enzyme; construct details not given
For B1, which Km [3] is on record?
Its Km is 1310 ± 91 µM.
